From the NIST ThermoML archive (doi:10.1016/j.tca.2010.05.016)

Test: mn = molality of the nth substance listed, in mol/kg
Conditions: 101 kPa, Liquid; for speed of sound: Vibrating Tube; for mass density: Vibrating tube method

NCC(=O)NCC(=O)NCC(=O)O [glycylglycylglycine] + O
Conditions | mass density, 288.15 K [kg/m3] | mass density, 293.15 K [kg/m3] | mass density, 298.15 K [kg/m3] | mass density, 303.15 K [kg/m3] | mass density, 308.15 K [kg/m3] | speed of sound, 288.15 K [m/s] | speed of sound, 293.15 K [m/s] | speed of sound, 298.15 K [m/s] | speed of sound, 303.15 K [m/s] | speed of sound, 308.15 K [m/s]
m1 = 0.03587 | 1001.94 | 1001 | 999.808 | 998.381 | 996.783 | 1470.6 | 1486.7 | 1500.8 | 1512.9 | 1523.3
m1 = 0.04684 | 1002.79 | 1001.85 | 1000.64 | 999.208 | 997.565 | 1471.6 | 1487.8 | 1501.8 | 1514 | 1524.3
m1 = 0.05855 | 1003.69 | 1002.74 | 1001.52 | 1000.08 | 998.435 | 1473 | 1489 | 1503 | 1515.1 | 1525.4
m1 = 0.06301 | 1004.03 | 1003.07 | 1001.86 | 1000.41 | 998.76 | 1473.4 | 1489.4 | 1503.4 | 1515.5 | 1525.8
m1 = 0.07743 | 1005.13 | 1004.16 | 1002.93 | 1001.54 | 999.825 | 1475 | 1490.8 | 1504.8 | 1516.8 | 1527.3
m1 = 0.09073 | 1006.13 | 1005.15 | 1003.92 | 1002.46 | 1000.79 | 1476.5 | 1492.6 | 1506 | 1518.4 | 1528.5
m1 = 0.1016 | 1006.95 | 1005.96 | 1004.73 | 1003.26 | 1001.58 | 1477.7 | 1493.4 | 1507.3 | 1519.3 | 1529.5
